In patent publication US20190127366A1 (LifeSci Pharmaceuticals, Inc., priority 2015, published 2019):

Molecular target: T1, human complement factor D (Homo sapiens, UniProt P00746)
T1 construct: purchased R&D Systems 1824-SE
Assay: In vitro enzyme inhibition (Z-Lys-SBzl/DTNB absorbance assay)
Assay type: biochemical
Settings: Complement Factor D (R&D Systems), substrate Z-Lys-SBzl, A405 nm; read-out: CFD IC50
Procedure, shortened: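 Factor D (6.25 ng/μL before addition) preincubated 5 min RT with compound (8 points from 50 μM, 6-fold, 0.5% DMSO final) in 50 mM Tris/HCl pH 7.5, 1 M NaCl, then Z-Lys-SBzl/DTNB added (200 μM each before addition). A405 read kinetically every 30 s for 60 min; IC50 from variable-slope fit, controls with and without enzyme.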

T1 sequence (P00746 26-253): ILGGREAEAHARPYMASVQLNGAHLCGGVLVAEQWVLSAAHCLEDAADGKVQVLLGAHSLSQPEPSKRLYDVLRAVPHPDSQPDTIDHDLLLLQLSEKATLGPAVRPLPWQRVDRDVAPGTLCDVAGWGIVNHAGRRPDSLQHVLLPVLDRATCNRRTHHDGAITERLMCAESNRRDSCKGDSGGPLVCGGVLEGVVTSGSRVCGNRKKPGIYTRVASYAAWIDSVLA

SMILES | IC50 [µM]
N#Cc1cc(Cl)c(F)c(CNC(=O)[C@@H]2[C@H]3CC[C@H](C3)N2C(=O)Cn2nc(C(N)=O)c3ccccc32)c1 [Example 113, 1-(2-((1R,3S,4S)-3-((3-chloro-5-cyano-2-fluorobenzyl)carbamoyl)-2-azabicyclo[2.2.1]heptan-2-yl)-2-oxoethyl)-1H-indazole-3-carboxamide] | 1 to 10
NC(=O)c1nn(CC(=O)N2[C@@H]3CC[C@@H](C3)[C@H]2C(=O)NCc2cc(CO)cc(Cl)c2F)c2ccccc12 [Example 114, 1-(2-((1R,3S,4S)-3-((3-chloro-2-fluoro-5-(hydroxymethyl)benzyl)carbamoyl)-2-azabicyclo[2.2.1]heptan-2-yl)-2-oxoethyl)-1H-indazole-3-carboxamide] | 1 to 10
NC(=O)c1nn(CC(=O)N2[C@@H]3CC[C@@H](C3)[C@H]2C(=O)NCc2c(Br)ccc(Cl)c2F)c2ccccc12 [Example 115, 1-(2-((1R,3S,4S)-3-((6-bromo-3-chloro-2-fluorobenzyl)carbamoyl)-2-azabicyclo[2.2.1]heptan-2-yl)-2-oxoethyl)-1H-indazole-3-carboxamide] | 1 to 10
COC(=O)c1ccc(Cl)c(F)c1CNC(=O)[C@@H]1[C@H]2CC[C@H](C2)N1C(=O)Cn1nc(C(N)=O)c2ccccc21 [Example 116, methyl 2-(((1R,3S,4S)-2-(2-(3-carbamoyl-1H-indazol-1-yl)acetyl)-2-azabicyclo[2.2.1]heptane-3-carboxamido)methyl)-4-chloro-3-fluorobenzoate] | 1 to 10
NC(=O)c1nn(CC(=O)N2[C@@H]3CC[C@@H](C3)[C@H]2C(=O)NCc2c(C(=O)O)ccc(Cl)c2F)c2ccccc12 [Example 117, 2-(((1R,3S,4S)-2-(2-(3-carbamoyl-1H-indazol-1-yl)acetyl)-2-azabicyclo[2.2.1]heptane-3-carboxamido)methyl)-4-chloro-3-fluorobenzoic acid] | 1 to 10
NC(=O)c1ccc(Cl)c(F)c1CNC(=O)[C@@H]1[C@H]2CC[C@H](C2)N1C(=O)Cn1nc(C(N)=O)c2ccccc21 [Example 118, 1-(2-((1R,3S,4S)-3-((6-carbamoyl-3-chloro-2-fluorobenzyl)carbamoyl)-2-azabicyclo[2.2.1]heptan-2-yl)-2-oxoethyl)-1H-indazole-3-carboxamide] | 1 to 10
N#Cc1ccc(Cl)c(F)c1CNC(=O)[C@@H]1[C@H]2CC[C@H](C2)N1C(=O)Cn1nc(C(N)=O)c2ccccc21 [Example 119, 1-(2-((1R,3S,4S)-3-((3-chloro-6-cyano-2-fluorobenzyl)carbamoyl)-2-azabicyclo[2.2.1]heptan-2-yl)-2-oxoethyl)-1H-indazole-3-carboxamide] | 1 to 10
NC(=O)c1nn(CC(=O)N2[C@@H]3CC[C@@H](C3)[C@H]2C(=O)NCc2c(CO)ccc(Cl)c2F)c2ccccc12 [Example 120, 1-(2-((1R,3S,4S)-3-((3-chloro-2-fluoro-6-(hydroxymethyl)benzyl)carbamoyl)-2-azabicyclo[2.2.1]heptan-2-yl)-2-oxoethyl)-1H-indazole-3-carboxamide] | 1 to 10
NC(=O)c1ccc2c(c1)c(C(N)=O)nn2CC(=O)N1[C@@H]2CC[C@@H](C2)[C@H]1C(=O)Nc1cccc(Cl)n1 [Example 121, 1-(2-((1R,3S,4S)-3-((6-chloropyridin-2-yl)carbamoyl)-2-azabicyclo[2.2.1]heptan-2-yl)-2-oxoethyl)-1H-indazole-3,5-dicarboxamide] | 0.1 to 1
NC(=O)c1ccc2c(C(N)=O)nn(CC(=O)N3[C@@H]4CC[C@@H](C4)[C@H]3C(=O)Nc3cccc(Cl)n3)c2c1 [Example 124, 1-(2-((1R,3S,4S)-3-((6-chloropyridin-2-yl)carbamoyl)-2-azabicyclo[2.2.1]heptan-2-yl)-2-oxoethyl)-1H-indazole-3,6-dicarboxamide] | 0.1 to 1
COC(=O)Cc1ccc2c(C(N)=O)nn(CC(=O)N3[C@@H]4CC[C@@H](C4)[C@H]3C(=O)NCc3cccc(Cl)c3F)c2c1 [Example 126, methyl 2-(3-carbamoyl-1-(2-((1R,3S,4S)-3-((3-chloro-2-fluorobenzyl)carbamoyl)-2-azabicyclo[2.2.1]heptan-2-yl)-2-oxoethyl)-1H-indazol-6-yl)acetate] | 1 to 10
NC(=O)c1nn(CC(=O)N2[C@@H]3CC[C@@H](C3)[C@H]2C(=O)NCc2cccc(Cl)c2F)c2cc(CC(=O)O)ccc12 [Example 127, 2-(3-carbamoyl-1-(2-((1R,3S,4S)-3-((3-chloro-2-fluorobenzyl)carbamoyl)-2-azabicyclo[2.2.1]heptan-2-yl)-2-oxoethyl)-1H-indazol-6-yl)acetic acid] | 1 to 10
NC(=O)Cc1ccc2c(C(N)=O)nn(CC(=O)N3[C@@H]4CC[C@@H](C4)[C@H]3C(=O)NCc3cccc(Cl)c3F)c2c1 [Example 128, 6-(2-amino-2-oxoethyl)-1-(2-((1R,3S,4S)-3-((3-chloro-2-fluorobenzyl)carbamoyl)-2-azabicyclo[2.2.1]heptan-2-yl)-2-oxoethyl)-1H-indazole-3-carboxamide] | 1 to 10
NC(=O)c1nn(CC(=O)N2[C@@H]3CC[C@@H](C3)[C@H]2C(=O)NCc2cccc(Cl)c2F)c2cc(CCO)ccc12 [Example 129, 1-(2-((1R,3S,4S)-3-((3-chloro-2-fluorobenzyl)carbamoyl)-2-azabicyclo[2.2.1]heptan-2-yl)-2-oxoethyl)-6-(2-hydroxyethyl)-1H-indazole-3-carboxamide] | 1 to 10
COC(=O)Cc1ccc2c(c1)c(C(N)=O)nn2CC(=O)N1[C@@H]2CC[C@@H](C2)[C@H]1C(=O)NCc1cccc(Cl)c1F [Example 130, methyl 2-(3-carbamoyl-1-(2-((1R,3S,4S)-3-((3-chloro-2-fluorobenzyl)carbamoyl)-2-azabicyclo[2.2.1]heptan-2-yl)-2-oxoethyl)-1H-indazol-5-yl)acetate] | 0.1 to 1
NC(=O)c1nn(CC(=O)N2[C@@H]3CC[C@@H](C3)[C@H]2C(=O)NCc2cccc(Cl)c2F)c2ccc(CC(=O)O)cc12 [Example 131] | 1 to 10
NC(=O)c1nn(CC(=O)N2[C@@H]3CC[C@@H](C3)[C@H]2C(=O)NCc2cccc(Cl)c2F)c2ccc(CCO)cc12 [Example 132] | 1 to 10

Further lines, results first:

IC50 [µM] | SMILES
1 to 10 | NC(=O)Cc1ccc2c(c1)c(C(N)=O)nn2CC(=O)N1[C@@H]2CC[C@@H](C2)[C@H]1C(=O)NCc1cccc(Cl)c1F [Example 133, 5-(2-amino-2-oxoethyl)-1-(2-((1R,3S,4S)-3-((3-chloro-2-fluorobenzyl)carbamoyl)-2-azabicyclo[2.2.1]heptan-2-yl)-2-oxoethyl)-1H-indazole-3-carboxamide]
> 10 | CC(C)=C(F)C(C)NC(=O)[C@@H]1[C@H]2CC[C@H](C2)N1C(=O)Cn1nc(C(N)=O)c2ccccc21 (stereo partly drawn) [Example 135, 1-(2-((1R,3S,4S)-3-((3-fluoro-4-methylpent-3-en-2-yl)carbamoyl)-2-azabicyclo[2.2.1]heptan-2-yl)-2-oxoethyl)-1H-indazole-3-carboxamide]
1 to 10 | COC(=O)C(NC(=O)[C@@H]1[C@H]2CC[C@H](C2)N1C(=O)Cn1nc(C(N)=O)c2ccccc21)c1cccc(Cl)c1F (stereo partly drawn) [Example 136, methyl 2-((1R,3S,4S)-2-(2-(3-carbamoyl-1H-indazol-1-yl)acetyl)-2-azabicyclo[2.2.1]heptane-3-carboxamido)-2-(3-chloro-2-fluorophenyl)acetate]
1 to 10 | NC(=O)c1nn(CC(=O)N2[C@@H]3CC[C@@H](C3)[C@H]2C(=O)NC(C(=O)O)c2cccc(Cl)c2F)c2ccccc12 (stereo partly drawn) [Example 137, 2-((1R,3S,4S)-2-(2-(3-carbamoyl-1H-indazol-1-yl)acetyl)-2-azabicyclo[2.2.1]heptane-3-carboxamido)-2-(3-chloro-2-fluorophenyl)acetic acid]
1 to 10 | NC(=O)c1nn(CC(=O)N2[C@@H]3CC[C@@H](C3)[C@H]2C(=O)NC(CO)c2cccc(Cl)c2F)c2ccccc12 (stereo partly drawn) [Example 138, 1-(2-((1R,3S,4S)-3-((1-(3-chloro-2-fluorophenyl)-2-hydroxyethyl)carbamoyl)-2-azabicyclo[2.2.1]heptan-2-yl)-2-oxoethyl)-1H-indazole-3-carboxamide]
> 10 | NCC(NC(=O)[C@@H]1[C@H]2CC[C@H](C2)N1C(=O)Cn1nc(C(N)=O)c2ccccc21)c1cccc(Cl)c1F (stereo partly drawn) [Example 140, 1-(2-((1R,3S,4S)-3-((2-amino-1-(3-chloro-2-fluorophenyl)ethyl)carbamoyl)-2-azabicyclo[2.2.1]heptan-2-yl)-2-oxoethyl)-1H-indazole-3-carboxamide]
0.1 to 1 | N#CC(NC(=O)[C@@H]1[C@H]2CC[C@H](C2)N1C(=O)Cn1nc(C(N)=O)c2ccccc21)c1cccc(Cl)c1F (stereo partly drawn) [Example 141, 1-(2-((1R,3S,4S)-3-(((3-chloro-2-fluorophenyl)(cyano)methyl)carbamoyl)-2-azabicyclo[2.2.1]heptan-2-yl)-2-oxoethyl)-1H-indazole-3-carboxamide]
1 to 10 | COC(=O)CC(NC(=O)[C@@H]1[C@H]2CC[C@H](C2)N1C(=O)Cn1nc(C(N)=O)c2ccccc21)c1cccc(Cl)c1F (stereo partly drawn) [Example 142, methyl 3-((1R,3S,4S)-2-(2-(3-carbamoyl-1H-indazol-1-yl)acetyl)-2-azabicyclo[2.2.1]heptane-3-carboxamido)-3-(3-chloro-2-fluorophenyl)propanoate]
1 to 10 | NC(=O)c1nn(CC(=O)N2[C@@H]3CC[C@@H](C3)[C@H]2C(=O)NC(CC(=O)O)c2cccc(Cl)c2F)c2ccccc12 (stereo partly drawn) [Example 143, 3-((1R,3S,4S)-2-(2-(3-carbamoyl-1H-indazol-1-yl)acetyl)-2-azabicyclo[2.2.1]heptane-3-carboxamido)-3-(3-chloro-2-fluorophenyl)propanoic acid]
